17 molecules from patent US11339157B1, “4H-pyrrolo[3,2-c]pyridin-4-one derivatives” (Bayer Aktiengesellschaft, priority 2017, dated 2022) can be followed below.

Values joined by “and” are separate entries in the source; they are usually repeats but may differ in a detail not shown here. Identical values can stand only once.

For assay [1], the target named is EGFR ins SVD (insertion of SVD between D770 and N771) (Homo sapiens, UniProt P00533, INS767SVD). Description: Exon 20-Mutant-EGFR(D770_N771insSVD) kinase assay (TR-FRET). Type of assay: biochemical. To be noted: Table 9; read-out: mutEGFR (D770_N771insSVD) kinase assay IC50. Background: TR-FRET usually uses a lanthanide donor and a delayed reading to cut background.
Sequence of EGFR ins SVD (insertion of SVD between D770 and N771) (P00533 with tags, fused parts or gaps INS767SVD limits assumed): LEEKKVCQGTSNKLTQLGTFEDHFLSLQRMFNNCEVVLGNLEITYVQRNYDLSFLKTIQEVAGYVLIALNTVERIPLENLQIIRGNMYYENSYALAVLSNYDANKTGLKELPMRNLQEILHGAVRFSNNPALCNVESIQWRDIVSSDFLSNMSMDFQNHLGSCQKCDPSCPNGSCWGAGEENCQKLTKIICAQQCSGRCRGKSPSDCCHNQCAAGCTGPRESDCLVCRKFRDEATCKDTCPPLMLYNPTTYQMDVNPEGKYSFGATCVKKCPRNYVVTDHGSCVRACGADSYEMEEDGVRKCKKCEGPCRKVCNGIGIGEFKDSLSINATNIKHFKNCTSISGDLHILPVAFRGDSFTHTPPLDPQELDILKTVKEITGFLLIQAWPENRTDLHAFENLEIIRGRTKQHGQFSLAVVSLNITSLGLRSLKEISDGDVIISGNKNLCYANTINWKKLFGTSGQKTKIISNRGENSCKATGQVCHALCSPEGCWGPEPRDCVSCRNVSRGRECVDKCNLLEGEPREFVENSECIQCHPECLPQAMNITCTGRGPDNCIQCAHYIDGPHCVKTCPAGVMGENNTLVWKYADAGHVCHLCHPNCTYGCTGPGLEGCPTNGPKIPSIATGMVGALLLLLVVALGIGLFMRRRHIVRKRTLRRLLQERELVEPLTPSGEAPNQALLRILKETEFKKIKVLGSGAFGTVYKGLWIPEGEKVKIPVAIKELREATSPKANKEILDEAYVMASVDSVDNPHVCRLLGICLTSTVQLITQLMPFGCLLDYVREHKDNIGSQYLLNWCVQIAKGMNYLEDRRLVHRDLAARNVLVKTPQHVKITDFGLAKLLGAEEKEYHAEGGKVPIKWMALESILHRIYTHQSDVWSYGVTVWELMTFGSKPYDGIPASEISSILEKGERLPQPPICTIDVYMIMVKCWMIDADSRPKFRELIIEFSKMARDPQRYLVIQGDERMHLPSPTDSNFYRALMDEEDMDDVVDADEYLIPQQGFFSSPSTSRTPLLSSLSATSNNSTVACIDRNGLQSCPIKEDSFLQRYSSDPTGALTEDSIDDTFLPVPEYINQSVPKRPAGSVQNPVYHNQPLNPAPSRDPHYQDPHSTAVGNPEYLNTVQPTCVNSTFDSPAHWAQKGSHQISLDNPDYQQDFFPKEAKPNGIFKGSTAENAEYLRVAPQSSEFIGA
Experimental: Exon 20-Mutant-EGFR(D770_N771insSVD) Kinase Assay
Inhibitory activity of compounds of the present invention against an Epidermal Growth Factor Receptor (EGFR) with an insertion of the amino acids sequence SVD between D770 and N771 was quantified employing the TR-FRET based kinase activity assay as described in the following paragraphs.
For the assay 50 nl of a 100-fold concentrated solution of the test compound in DMSO was pipetted into either a black low volume 384 well microtiter plate or a black 1536 well microtiter plate (both Greiner Bio-One, Frickenhausen, Germany), 2 μl of a solution of EGFR in aqueous assay buffer [50 mM Hepes pH 7.0, 10 mM MgCl2, 1 mM dithiothreitol, 0.5 mM EGTA, 0.3 mM activated sodium ortho-vanadate, 0.005% (w/v) bovine serum albumin, 0.005% (v/v) Tween-20] were added and the mixture was incubated for 15 min at 22° C. to allow pre binding of the test compounds to the enzyme before the start of the kinase reaction. […] The concentration of EGFR was adjusted depending of the activity of the enzyme lot and was chosen appropriate to have the assay in the linear range, typical concentration was 15 pg/μl. The reaction was stopped by the addition of 3 μl of a solution of HTRF detection reagents (83.3 nM streptavidine-XL665 [Cisbio Bioassays, Codolet, France] and 1.67 nM PT66-Tb-Cryptate, a terbium-cryptate labelled anti-phospho-tyrosine antibody from Cisbio Bioassays [instead of the PT66 Tb cryptate PT66 Eu Chelate from Perkin Elmer can also be used]) in an aqueous EDTA-solution (133.3 mM EDTA, 0.2% (w/v) bovine serum albumin in 50 mM HEPES pH 7.5).
The resulting mixture was incubated 1 h at 22° C. to allow the binding of the biotinylated phosphorylated peptide to the streptavidine-XL665 and the PT66-Tb-Cryptate. Subsequently the amount of phosphorylated substrate was evaluated by measurement of the resonance energy transfer from the PT66-Tb-Cryptate to the streptavidine-XL665.

The test system of another assay is Ba/F3-EGFR-insSVD cells. Nature of the assay: Proliferation assay in BA/F3 (ins SVD) cells (Cell Titer-Glo). Type of assay: cell-based. How it is done: (§1) Cellular Data Description (WT, insSVD, Ins ASV)
(§2) Plates were incubated at 37° C. for 48 h. Retrovirus was harvested by filtering the media supernatant through a 0.45 μm filter.
(§3) Ba/F3 cells purchased from DSMZ were grown in RPMI+10% FBS+10 ng/mL IL-3 and infected with filtered retroviral supernatant at a 1:2 dilution. Polybrene was added to a concentration of 8 μg/mL, plates were spun for 90 min, and incubated overnight at 37° C. 2 μg/mL puromycin was added to the infected cells 24 h after infection and cells were continually grown in the presence of puromycin and 10 ng/mL IL-3. Following stably expressing Ba/F3 cell lines were generated: Ba/F3-EGFR-WT, Ba/F3-EGFR-insSVD.
(§4) The cells ectopically expressing WT EGFR were plated with 10 ng/mL Millipore Culture grade EGF. The cells ectopically expressing EGFR-insSVD were plated without EGF.
(§5) 100 nL of compound was added to each well using a 100 nL pin head, and plates were incubated at 37° C. for 48 h.
(§6) Cell viability was measured by adding 30 μL of Cell Titer-Glo Luminescent Cell Viability Reagent. Plates were sealed with Perkin Elmer Top-Seal, inverted several times to mix, and immediately centrifuged at 1000 rpm for 2 min. Plates were incubated in low light conditions for 8-10 min and luminescence was measured.
For orientation: In ATP-based viability assays light output follows the ATP content of the culture.

The test system of a further assay is Ba/F3-EGFR-WT cells. Description: Proliferation assay in BA/F3 (wild type) cells (Cell Titer-Glo). Type of assay: cell-based. How it is done: as §1, §2, §3, §4, §5, §6
[2] abbreviates: Mus musculus, BaF3, 48 h, Table 10, plated without EGF.
Setting [3] is: Mus musculus, BaF3, 48 h, Table 10, plated with 10 ng/mL EGF.

As to `COc1c(F)cccc1Nc1c(-c2ccncc2OCCOC(C)(C)C)[nH]c2c1C(=O)NCC2` [Example 91, 2-[3-(2-tert-butoxyethoxy)pyridin-4-yl]-3-(3-fluoro-2-methoxyanilino)-1,5,6,7-tetrahydro-4H-pyrrolo[3,2-c]pyridin-4-one], the results for the IC50 (in assay [1]; in the assay with Ba/F3-EGFR-insSVD cells (setting [2]); in the assay with Ba/F3-EGFR-WT cells (setting [3])) were 0.135 nM, 35.7 nM and 1100 nM, respectively.

Regarding `CC(C)(COc1cnccc1-c1[nH]c2c(c1Nc1cccc(F)c1OC(F)F)C(=O)NCC2)N1CCOCC1` [Example 76, 3-[2-(difluoromethoxy)-3-fluoroanilino]-2-{3-[2-methyl-2-(morpholin-4-yl)propoxy]pyridin-4-yl}-1,5,6,7-tetrahydro-4H-pyrrolo[3,2-c]pyridin-4-one], the IC50 (in general, the concentration that gives 50% inhibition) in assay [1] is 0.845 nM; in the assay on Ba/F3-EGFR-insSVD cells (Mus musculus, BaF3, Table 10, plated without EGF, 48 h), 250 nM; in the assay on Ba/F3-EGFR-WT cells (Mus musculus, BaF3, Table 10, plated with 10 ng/mL EGF, 48 h), 2090 nM.

Take `COc1c(Cl)cccc1Nc1c(-c2ccncc2OC[C@@H]2CCCN2CC(F)(F)F)[nH]c2c1C(=O)NCC2` [Example 95, 3-(3-chloro-2-methoxyanilino)-2-(3-{[(2S)-1-(2,2,2-trifluoroethyl)pyrrolidin-2-yl]methoxy}pyridin-4-yl)-1,5,6,7-tetrahydro-4H-pyrrolo[3,2-c]pyridin-4-one]: the IC50 is 0.187 nM in assay [1], 141 nM in the assay with Ba/F3-EGFR-insSVD cells (setting [2]) and 2370 nM with Ba/F3-EGFR-WT cells (setting [3]).

For the molecule `Cc1c(Cl)cccc1Nc1c(-c2ccncc2OCC(C)(C)N(C)C)[nH]c2c1C(=O)NCC2` [Example 60, 3-(3-chloro-2-methylanilino)-2-{3-[2-(dimethylamino)-2-methylpropoxy]pyridin-4-yl}-1,5,6,7-tetrahydro-4H-pyrrolo[3,2-c]pyridin-4-one], the figures for the IC50 (in assay [1]; in the assay on Ba/F3-EGFR-insSVD cells (setting [2]); in the assay on Ba/F3-EGFR-WT cells (setting [3])) were 0.695 nM, 38.6 nM and 1750 nM, respectively.

Turning to `COc1c(F)cccc1Nc1c(-c2ccncc2OC[C@@H](C)OC)[nH]c2c1C(=O)NCC2` [Example 92, 3-(3-fluoro-2-methoxyanilino)-2-{3-[(2R)-2-methoxypropoxy]pyridin-4-yl}-1,5,6,7-tetrahydro-4H-pyrrolo[3,2-c]pyridin-4-one], the IC50 in assay [1] is 0.118 nM; in the assay on Ba/F3-EGFR-insSVD cells (setting [2]), 10.4 nM; in the assay on Ba/F3-EGFR-WT cells (setting [3]), 309 nM.

Consider `COC(C)(C)COc1cnccc1-c1[nH]c2c(c1Nc1cccc(F)c1Br)C(=O)NCC2` [Example 37, 3-(2-bromo-3-fluoroanilino)-2-[3-(2-methoxy-2-methylpropoxy)pyridin-4-yl]-1,5,6,7-tetrahydro-4H-pyrrolo[3,2-c]pyridin-4-one], for which the IC50 is 0.12 nM and 0.0795 nM and 0.107 nM and 0.0958 nM and < 0.0725 nM (2×) in assay [1]; 16 nM in the assay with Ba/F3-EGFR-insSVD cells (setting [2]); 583 nM in the assay on Ba/F3-EGFR-WT cells (setting [3]).

Consider `O=C1NCCc2[nH]c(-c3ccncc3OC[C@@H]3CCCO3)c(Nc3cccc(Cl)c3Cl)c21` [Example 70, 3-(2,3-dichloroanilino)-2-(3-{[(2S)-oxolan-2-yl]methoxy}pyridin-4-yl)-1,5,6,7-tetrahydro-4H-pyrrolo[3,2-c]pyridin-4-one], for which the figures for the IC50 (in assay [1]; in the assay on Ba/F3-EGFR-insSVD cells (setting [2]); in the assay on Ba/F3-EGFR-WT cells (setting [3])) were 0.0918 nM, 16.1 nM and 297 nM, respectively.

Regarding `COc1c(F)cccc1Nc1c(-c2ccncc2OCC2CCCO2)[nH]c2c1C(=O)NCC2` (stereo not drawn) [Example 86, 3-(3-fluoro-2-methoxyanilino)-2-{3-[(oxolan-2-yl)methoxy]pyridin-4-yl}-1,5,6,7-tetrahydro-4H-pyrrolo[3,2-c]pyridin-4-one], the IC50 in assay [1] is 0.122 nM; with Ba/F3-EGFR-insSVD cells (setting [2]), 12.8 nM; with Ba/F3-EGFR-WT cells (setting [3]), 377 nM.

Regarding `COC(C)(C)COc1cnccc1-c1[nH]c2c(c1Nc1cccc(Cl)c1C)C(=O)NCC2` [Example 36, 3-(3-chloro-2-methylanilino)-2-[3-(2-methoxy-2-methylpropoxy)pyridin-4-yl]-1,5,6,7-tetrahydro-4H-pyrrolo[3,2-c]pyridin-4-one], the IC50 was determined as 0.194 nM in assay [1], 9.55 nM in the assay on Ba/F3-EGFR-insSVD cells (setting [2]) and 529 nM with Ba/F3-EGFR-WT cells (setting [3]).

Take `Cc1c(F)cccc1Nc1c(-c2ccncc2OCC(C)(C)N(C)C)[nH]c2c1C(=O)NCC2` [Example 61, 2-{3-[2-(dimethylamino)-2-methylpropoxy]pyridin-4-yl}-3-(3-fluoro-2-methylanilino)-1,5,6,7-tetrahydro-4H-pyrrolo[3,2-c]pyridin-4-one]: the IC50 in assay [1] came out at 1.12 nM; in the assay on Ba/F3-EGFR-insSVD cells (setting [2]), 88.9 nM; with Ba/F3-EGFR-WT cells (setting [3]), 1460 nM.

As to `COc1c(F)cccc1Nc1c(-c2ccncc2OC(C)Cc2ccccc2)[nH]c2c1C(=O)NCC2` (stereo not drawn) [Example 93, 3-(3-fluoro-2-methoxyanilino)-2-{3-[(1-phenylpropan-2-yl)oxy]pyridin-4-yl}-1,5,6,7-tetrahydro-4H-pyrrolo[3,2-c]pyridin-4-one], the IC50 in assay [1] turned out to be 0.277 nM; in the assay on Ba/F3-EGFR-insSVD cells (setting [2]) it was 468 nM; with Ba/F3-EGFR-WT cells (setting [3]), 3680 nM.

In the case of `COC(C)(C)COc1cnccc1-c1[nH]c2c(c1Nc1cccc(Cl)c1Cl)C(=O)NCC2` [Example 34, 3-(2,3-dichloroanilino)-2-[3-(2-methoxy-2-methylpropoxy)pyridin-4-yl]-1,5,6,7-tetrahydro-4H-pyrrolo[3,2-c]pyridin-4-one], the figures for the IC50 (in assay [1]; with Ba/F3-EGFR-insSVD cells (setting [2]); in the assay on Ba/F3-EGFR-WT cells (setting [3])) were 0.0946 nM, 7 nM and 278 nM, respectively.

For the molecule `COc1c(F)cccc1Nc1c(-c2ccncc2OCC2CCCCN2C)[nH]c2c1C(=O)NCC2` (stereo not drawn) [Example 90, 3-(3-fluoro-2-methoxyanilino)-2-(3-{[1-methylpiperidin-2-yl]methoxy}pyridin-4-yl)-1,5,6,7-tetrahydro-4H-pyrrolo[3,2-c]pyridin-4-one], the IC50 in assay [1] turned out to be 0.69 nM; in the assay on Ba/F3-EGFR-insSVD cells (setting [2]) it was 29 nM; in the assay with Ba/F3-EGFR-WT cells (setting [3]) it was 2660 nM.

In the case of `Cc1c(F)cc(F)cc1Nc1c(-c2ccncc2OCCN(C)C)[nH]c2c1C(=O)NCC2` [Example 55, 3-(3,5-difluoro-2-methylanilino)-2-{3-[2-(dimethylamino)ethoxy]pyridin-4-yl}-1,5,6,7-tetrahydro-4H-pyrrolo[3,2-c]pyridin-4-one], the values for the IC50 (in assay [1]; in the assay on Ba/F3-EGFR-insSVD cells (setting [2]); in the assay with Ba/F3-EGFR-WT cells (setting [3])) were 0.465 nM, 303 nM and 2830 nM, respectively.

For the molecule `COc1c(Cl)cccc1Nc1c(-c2ccncc2OCC2CCCCN2C)[nH]c2c1C(=O)NCC2` (stereo not drawn) [Example 63, 3-(3-chloro-2-methoxyanilino)-2-(3-{[1-methylpiperidin-2-yl]methoxy}pyridin-4-yl)-1,5,6,7-tetrahydro-4H-pyrrolo[3,2-c]pyridin-4-one], the IC50 in assay [1] is 0.509 nM; in the assay with Ba/F3-EGFR-insSVD cells (setting [2]), 12.3 nM; in the assay on Ba/F3-EGFR-WT cells (setting [3]), 485 nM.

Turning to `COc1c(Cl)cccc1Nc1c(-c2ccncc2OCCOC(C)(C)C)[nH]c2c1C(=O)NCC2` [Example 87, 2-[3-(2-tert-butoxyethoxy)pyridin-4-yl]-3-(3-chloro-2-methoxyanilino)-1,5,6,7-tetrahydro-4H-pyrrolo[3,2-c]pyridin-4-one], the figures for the IC50 (in assay [1]; in the assay on Ba/F3-EGFR-insSVD cells (setting [2]); in the assay on Ba/F3-EGFR-WT cells (setting [3])) were 0.204 nM, 34.4 nM and 1060 nM, respectively.

Take `COc1c(F)cccc1Nc1c(-c2ccncc2OCC2CCCO2)[nH]c2c1C(=O)NCC2` (single isomer, unassigned; enantiomer 2) [Example 89, 3-(3-fluoro-2-methoxyanilino)-2-{3-[(oxolan-2-yl)methoxy]pyridin-4-yl}-1,5,6,7-tetrahydro-4H-pyrrolo[3,2-c]pyridin-4-one (enantiomer 2)]: the IC50 worked out at 0.108 nM in assay [1]; 12.8 nM with Ba/F3-EGFR-insSVD cells (Table 10, plated without EGF, 48 h); 252 nM in the assay on Ba/F3-EGFR-WT cells (Table 10, plated with 10 ng/mL EGF, 48 h).
